Data taken from ChEMBL document CHEMBL1145186, “Extravascular transport of drugs in tumor tissue: effect of lipophilicity on diffusion of tirapazamine analogues in multicellular layer cultures” (J Med Chem, 2005).

Experiment: Partition coefficient (logP) of the compound
Format: physicochemical

Row | logP | Compound
1 | 1.51 | COCCc1cccc(Nc2n[n+]([O-])c3ccccc3[n+]2[O-])c1
2 | 0.441 | Nc1n[n+]([O-])c2cc(Cl)ccc2[n+]1[O-]
3 | 0.24 | Cc1cccc2c1[n+]([O-])nc(N)[n+]2[O-]
4 | 0.127 | Cc1ccc2c(c1)[n+]([O-])nc(N)[n+]2[O-]
5 | -1.38 | CS(=O)(=O)c1cccc2c1[n+]([O-])nc(N)[n+]2[O-]
6 | -0.102 | Nc1n[n+]([O-])c2cccc(Cl)c2[n+]1[O-]
7 | 0.48 | Nc1n[n+]([O-])c2c(C(F)(F)F)cccc2[n+]1[O-]
8 | 0.068 | Cc1ccc2c(c1)[n+]([O-])c(N)n[n+]2[O-]
9 | 0.166 | Nc1n[n+]([O-])c2c(Cl)cccc2[n+]1[O-]
10 | -0.342 | Nc1n[n+]([O-])c2ccccc2[n+]1[O-] [TIRAPAZAMINE]

Continued, compound first:

Row | Compound | logP
11 | [O-][n+]1nc(Nc2ccccc2)[n+]([O-])c2ccccc21 | 1.43
12 | CCN(CC)c1cccc2c1[n+]([O-])nc(N)[n+]2[O-] | 0.83
13 | Nc1n[n+]([O-])c2cc(C(F)(F)F)ccc2[n+]1[O-] | 0.82
14 | CS(=O)(=O)c1ccc2c(c1)[n+]([O-])nc(N)[n+]2[O-] | -1.15
15 | O=c1c2ccccc2[nH]c2ccccc12 [ACRIDONE] | 2.98
16 | OC[C@@H](O)[C@@H](O)[C@H](O)[C@H](O)CO [MANNITOL] | -2.62
17 | NC(N)=O [UREA] | -2.01
